Experiments:
[1] = tested on: TTAA hairpin, 5'-biotin (SPR) (DNA, hairpin) CGTTAAGCTTTCTTAACG; experiment: biosensor SPR, steady-state fit; conditions: Na+ 100 mM (Table 1 note 10 mM); 50 mM Tris-HCl, 1 mM EDTA, 0.05% P20, pH 7.4
[2] = tested on: TATA hairpin, 5'-biotin (SPR) (DNA, hairpin) CCTATAGTTTTCTATAGG; experiment: biosensor SPR, steady-state fit; conditions: Na+ 100 mM (Table 1 note 10 mM); 50 mM Tris-HCl, 1 mM EDTA, 0.05% P20, pH 7.4
[3] = tested on: AATT hairpin, 5'-biotin (SPR) (DNA, hairpin) CGAAATTGCCTCTGCAATTCG; experiment: biosensor SPR, steady-state one-site fit; conditions: Na+ 100 mM (Table 1 note 10 mM), 50 mM Tris-HCl, 1 mM EDTA
[4] = tested on: TTAA hairpin (ESI-MS, CD) (DNA, hairpin) CGTTAAGCTTTCTTAACG; experiment: circular dichroism titration; conditions: Na+ 100 mM; 50 mM Tris-HCl, 1 mM EDTA, pH 7.4, 25 °C; DNA 5 μM
[5] = tested on: AATT hairpin (ESI-MS, CD) (DNA, hairpin) CGAAATTGCCTCTGCAATTCG; experiment: competition ESI-MS; conditions: NH4+ 100 mM (ammonium acetate); 10% methanol, pH 6.8; AATT and TTAA 10 μM each, compound 20 μM
[6] = tested on: TTAA hairpin (ESI-MS, CD) (DNA, hairpin) CGTTAAGCTTTCTTAACG; experiment: competition ESI-MS; conditions: NH4+ 100 mM (ammonium acetate); 10% methanol, pH 6.8; AATT and TTAA 10 μM each, compound 20 μM
[7] = tested on: AATT hairpin, 5'-biotin (SPR) (DNA, hairpin) CGAAATTGCCTCTGCAATTCG; experiment: biosensor SPR, one-site fit; conditions: Na+ 100 mM (Table 1 note 10 mM); 50 mM Tris-HCl, 1 mM EDTA, 0.05% P20, pH 7.4
[8] = tested on: TTAA hairpin, 5'-biotin (SPR) (DNA, hairpin) CGTTAAGCTTTCTTAACG; experiment: biosensor SPR, steady-state two-site fit; conditions: Na+ 100 mM; 50 mM Tris-HCl, 1 mM EDTA, pH 7.4; site 1 of 2; KA2 5.5 × 10^6; Table 1 KA 6.9 × 10^6
[9] = tested on: TATA hairpin, 5'-biotin (SPR) (DNA, hairpin) CCTATAGTTTTCTATAGG; experiment: biosensor SPR, steady-state two-site fit; conditions: Na+ 100 mM; 50 mM Tris-HCl, 1 mM EDTA, pH 7.4; site 1 of 2; KA2 2.6 × 10^6; Table 1 KA 4.2 × 10^6
[10] = tested on: TATA hairpin, 5'-biotin (SPR) (DNA, hairpin) CCTATAGTTTTCTATAGG; experiment: biosensor SPR; conditions: Na+ 100 mM (Table 1 note 10 mM); printed as 'Very weak binder'; 50 mM Tris-HCl, 1 mM EDTA, 0.05% P20, pH 7.4; up to 1000 nM
[11] = tested on: AATT hairpin, 5'-biotin (SPR) (DNA, hairpin) CGAAATTGCCTCTGCAATTCG; experiment: biosensor SPR, one-site kinetic fit; conditions: Na+ 100 mM (Table 1 note 10 mM); 50 mM Tris-HCl, 1 mM EDTA, 0.05% P20, pH 7.4
[12] = tested on: d(5'-GCTGCGTTAACGCAGC-3')2 (DNA, duplex) GCTGCGTTAACGCAGC; experiment: X-ray crystallography, low resolution; conditions: antiparallel stacked dimer in minor groove; not deposited
[13] = tested on: d(5'-GCTGCGTTAACGCAGC-3')2 (DNA, duplex) GCTGCGTTAACGCAGC; experiment: X-ray crystallography, 1.5 Å; conditions: Ca2+ 600 mM (CaCl2, well); HEPES, PEG 400; antiparallel stacked dimer in minor groove

SMILES	KA [1] [M⁻¹]	KA ([3]; 0.05% P20, pH 7.4) [M⁻¹]	binding [4]	binding [5]	binding [6]	also measured
N=C(N)c1ccc2cc(-c3ccc(-c4ccc(C(=N)N)o4)s3)[nH]c2c1	2.8e+06	6.7e+07	–	–	–	KA [2]: 5.2e+06 M⁻¹
N=C(N)c1ccc2cc(-c3ccc(-c4ccc(C(=N)N)o4)o3)[nH]c2c1	–	7.3e+06	yes	–	–	–
N=C(N)c1ccc2cc(-c3ccc(-c4ccc(C(=N)N)s4)s3)[nH]c2c1	–	–	–	–	–	KA [7]: 1.5e+08 M⁻¹; KA1 [8]: 8.8e+06 M⁻¹; KA1 [9]: 6.9e+06 M⁻¹
N=C(N)c1ccc2cc(-c3ccc(-c4ccc(C(=N)N)s4)o3)[nH]c2c1	–	6.5e+06	yes	–	–	–
N=C(N)c1ccc2[nH]c(-c3ccc(-c4ccc(C(=N)N)o4)o3)nc2c1	–	2.1e+06	yes	–	yes	binding [12]: yes

Continued, in another order:

KA [1] [M⁻¹]	KA ([3]; 0.05% P20, pH 7.4) [M⁻¹]	binding [4]	binding [5]	binding [6]	SMILES	also measured
1e+06	–	yes	yes	weak	N=C(N)c1ccc2nc(-c3ccc(-c4ccc(C(=N)N)o4)s3)[nH]c2c1	KA [2]: 700000 M⁻¹; KA ([3]; 0.05% P20, pH 7.4 buffer, text b17 prints 3.0 × 10^7): 3.5e+07 M⁻¹
1.6e+06	–	yes	yes	weak	N=C(N)c1ccc2[nH]c(-c3ccc(-c4ccc(C(=N)N)s4)s3)nc2c1	binding [10]: weak; KA [11]: 2.4e+08 M⁻¹
–	6.2e+06	yes	weak	yes	N=C(N)c1ccc2[nH]c(-c3ccc(-c4ccc(C(=N)N)s4)o3)nc2c1	binding [13]: yes

— article PMC11851451 (2025)
